Measurements from ChEMBL document CHEMBL1201862, “PubChem BioAssay data set” (2004).
Activity calls are given as the source filed them.

Tests used:
[1] = biological target: T1, Orexin/Hypocretin receptor type 1 (Homo sapiens, UniProt O43613); assay: Homogeneous Time Resolved Fluorescence (HTRF)-based cell-based high throughput dose response assay for antagonists of the orexin 1 receptor (OX1R; HCRTR1). [Related pubchem assays (depositor defined):AID434989, AID435008, AID463079, AID485270, AID492963, AID492964, AID492965, AID493232, AID504717, AID504718]; type: functional
T1 sequence (O43613 whole entry): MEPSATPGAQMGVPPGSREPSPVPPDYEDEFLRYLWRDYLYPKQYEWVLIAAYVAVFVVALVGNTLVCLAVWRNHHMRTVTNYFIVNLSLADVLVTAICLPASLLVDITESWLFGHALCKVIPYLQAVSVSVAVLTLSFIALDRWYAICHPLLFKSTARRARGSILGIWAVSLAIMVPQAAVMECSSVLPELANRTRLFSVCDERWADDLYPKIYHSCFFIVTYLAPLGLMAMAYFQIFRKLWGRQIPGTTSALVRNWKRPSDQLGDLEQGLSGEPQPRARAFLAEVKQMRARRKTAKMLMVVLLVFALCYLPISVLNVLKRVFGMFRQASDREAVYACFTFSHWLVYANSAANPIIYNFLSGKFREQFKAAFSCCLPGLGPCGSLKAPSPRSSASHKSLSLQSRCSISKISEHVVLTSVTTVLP

[2] = system: BJ; assay: BJ-TERT fibroblast viability loss – cell-based, RAS-independent, luminescence, dose response (AID 1933); type: functional, Homo sapiens; details: Homo sapiens, BJ
[3] = biological target: T1, Orexin/Hypocretin receptor type 1; assay: Fluorescence-based cell-based high throughput dose response assay for antagonists of the orexin 1 receptor (OX1R; HCRTR1). [Related pubchem assays (depositor defined):AID434989, AID435008, AID463079, AID485270, AID492963, AID492964, AID492965, AID493232, AID504717, AID504718]; type: functional
[4] = biological target: Paired box protein Pax-8 (Homo sapiens, UniProt Q06710); assay: PAX8 transcriptional activity inhibition in RMG-I – RMG-I cells, luciferase, cherry-pick, dose response (AID 687027); type: functional, cell-based;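 further: luciferase reporter driven by Pax8 target thyroperoxidase promoter measured by SteadyGlo luminescence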
[5] = system: BJ; assay: BJ-TERT-LT-ST fibroblast viability loss – cell-based, RAS-independent, luminescence, dose response (AID 1935); type: functional, Homo sapiens; details: Homo sapiens, BJ;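 further: BJ fibroblasts immortalized with TERT plus LT and ST oncogenes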
[6] = biological target: T2, Orexin receptor type 2 (Homo sapiens, UniProt O43614); assay: Counterscreen assay for antagonists of the orexin 1 receptor (OX1R; HCRTR1): Homogeneous Time Resolved Fluorescence (HTRF)-based cell-based dose response assay for antagonists of the orexin 2 receptor (OX2R; HCRTR2), run by assay provider.; type: functional
[7] = biological target: T2, Orexin receptor type 2; assay: Counterscreen assay for antagonists of the orexin 1 receptor (OX1R; HCRTR1): Fluorescence-based cell-based dose response assay for antagonists of the orexin 2 receptor (OX2R; HCRTR2), run by assay provider.; type: functional
[8] = system: CHO-K1; assay: Counterscreen for antagonists of the orexin 1 receptor (OX1R; HCRTR1): Homogeneous time resolved fluorescence (HTRF)-based cell-based dose response assay to identify antagonists of the parental CHO-K1 cell line. [Related pubchem assays (depositor defined):AID434989, AID435008, AID463079, AID485270, AID492963, AID492964, AID492965, AID493232, AID504699, AID504701]; type: functional; details: Cricetulus griseus;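 further: potency for inhibition of ATP-stimulated IP1 production as antagonists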
[9] = DRD fibroblast viability loss – cell-based, non-viral oncogenic, luminescence, dose response (AID 1934); type: functional; details: Homo sapiens
[10] = Luminescence Cell-Based Dose Retest to Confirm Inhibitors of Cancer Stem Cells. [Related pubchem assays (depositor defined):AID2717, AID2721]; type: functional; details: Homo sapiens
[11] = Counterscreen for antagonists of the orexin 1 receptor (OX1R; HCRTR1): Fluorescence-based cell-based high throughput dose response assay to identify antagonists of the parental CHO cell line. [Related pubchem assays (depositor defined):AID434989, AID435008, AID463079, AID485270, AID492963, AID492964, AID492965, AID493232, AID504699, AID504701]; type: functional
[12] = HEK-293T viability loss after treatment – luminescence, T-cell screen hits, cytotoxicity control for TCR NF-kB inhibitor project, dose response (AID 489026); type: functional, cell-based;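 further: cells exposed to compound about 14 hours before the viability readout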
[13] = system: BJ; assay: cells; type: functional, cell-based, Homo sapiens; details: Homo sapiens, BJ
[14] = reduction of Shn3 3'UTR-driven luciferase in osteoblasts – cell-based, Clone20 osteoblasts, firefly luciferase, cherry-picked, dose response (AID 624132); type: functional;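 further: firefly luciferase luminescence from reporter carrying the Shn3 3'UTR in osteoblasts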
[15] = Trypanosoma cruzi growth suppression in host cells – NIH3T3 host cells, beta-gal luminescence, confirmation (AID 2044); type: functional, cell-based;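 further: intracellular parasites grown in NIH/3T3 mouse fibroblasts as host cells; luminescent beta-galactosidase reporter signal from transgenic T. cruzi replicating inside host cells; inhibitors lower the luminescence signal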
[16] = system: Streptococcus sp. 'group A'; assay: Streptococcus pyogenes SK(-)GAS viability under kanamycin – luminescence, BacTiterGlo, confirmation, counter-screen for streptokinase expression inhibitor project, dose response (AID 1900); type: functional, organism-based
[17] = system: HEK293; assay: SAR Analysis of small molecule inhibitors of both B-cell and T-cell specific antigen receptor-induced NF-kB activation in a HEK-293T cell line using a luminescence assay. [Related pubchem assays (depositor defined):AID435003, AID435022, AID465, AID489019, AID489029]; type: functional, cell-based; details: Homo sapiens
[18] = system: Jurkat; assay: SAR Analysis of small molecule inhibitors of both B-cell and T-cell specific antigen receptor-induced NF-kB activation in a Jurkat cell line using a luminescence assay. [Related pubchem assays (depositor defined):AID435003, AID435022, AID465, AID489029]; type: functional, cell-based; details: Homo sapiens
[19] = non-specific 3'UTR reporter inhibition in Clone20-Shn3RL – cell-based, Renilla luciferase, cherry-picked, counter-screen for Shn3 inhibitor project, dose response (AID 624133); type: functional
[20] = Fluorescence-based cell-based high throughput dose response assay for inhibitors of the interaction of nucleotide-binding oligomerization domain containing 2 (NOD2) and the receptor-interacting serine-threonine kinase 2 (RIPK2).; type: functional; details: Homo sapiens
[21] = biological target: Beta-galactosidase (Escherichia coli, UniProt Q8VNN2); assay: PubChem AID 485352; type: functional
[22] = NIH3T3 cell viability loss – ATP luminescence, mouse fibroblasts, counter-screen, dose response (AID 2010); type: functional, cell-based;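 further: cells exposed to compound for about 90 hours before reading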
[23] = biological target: T3, Streptokinase A (Streptococcus pyogenes serotype M1, UniProt P10520); assay: viability-normalized secreted streptokinase activity reduction – plasminogen activation absorbance, OD405, dose response (AID 1914); type: functional, Streptococcus pyogenes M1 GAS;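 further: secreted streptokinase activity via plasminogen activation per viability signal from cell pellet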
T3 sequence (P10520 whole entry): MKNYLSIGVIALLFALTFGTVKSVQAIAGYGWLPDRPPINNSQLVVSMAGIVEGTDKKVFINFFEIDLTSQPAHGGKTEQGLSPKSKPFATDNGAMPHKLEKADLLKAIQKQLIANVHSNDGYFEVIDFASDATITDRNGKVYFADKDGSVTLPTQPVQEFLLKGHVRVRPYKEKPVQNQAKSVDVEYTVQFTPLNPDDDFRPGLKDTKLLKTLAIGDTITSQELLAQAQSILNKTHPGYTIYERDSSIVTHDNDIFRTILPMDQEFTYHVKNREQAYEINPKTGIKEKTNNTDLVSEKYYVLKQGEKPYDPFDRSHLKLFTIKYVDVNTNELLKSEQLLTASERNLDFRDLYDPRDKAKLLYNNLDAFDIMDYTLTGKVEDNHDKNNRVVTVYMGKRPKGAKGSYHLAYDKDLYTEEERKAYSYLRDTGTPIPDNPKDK

[24] = biological target: T4, Type-1 angiotensin II receptor (Homo sapiens, UniProt P30556); assay: antagonism of angiotensin II type 1 receptor – cell-based, uHTS hits, selectivity assay for APJ receptor antagonist project, dose response (AID 463214); type: functional;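 further: antagonist potency against angiotensin II stimulated AT1 response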
T4 sequence (P30556 whole entry): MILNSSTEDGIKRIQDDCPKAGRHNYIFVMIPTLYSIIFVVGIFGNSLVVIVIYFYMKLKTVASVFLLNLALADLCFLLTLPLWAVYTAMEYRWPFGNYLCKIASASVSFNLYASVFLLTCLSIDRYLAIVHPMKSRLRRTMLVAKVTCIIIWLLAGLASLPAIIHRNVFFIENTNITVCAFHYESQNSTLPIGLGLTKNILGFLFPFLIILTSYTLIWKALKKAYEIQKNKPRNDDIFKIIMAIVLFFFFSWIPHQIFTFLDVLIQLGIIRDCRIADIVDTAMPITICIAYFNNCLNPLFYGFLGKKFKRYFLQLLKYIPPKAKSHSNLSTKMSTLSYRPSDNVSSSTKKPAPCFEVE

[25] = system: HEK293; assay: HEK293T cell viability loss, resazurin readout – resazurin fluorescence, cytotoxicity control for NF-kB activator project, SAR follow-up (AID 493251); type: functional, cell-based; details: Homo sapiens
[26] = biological target: T5, Heat shock factor protein 1 (Mus musculus, UniProt P38532); assay: decrease of HSF1-responsive luciferase luminescence – cell-based, NIH3T3, dose retest, confirmation (AID 2382); type: functional;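 further: NIH3T3 fibroblasts with HSF1-driven luciferase reporter stressed by proteasome inhibitor MG132; luminescence from HSF1-driven luciferase expression after 8 hours of MG132 stress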
T5 sequence (P38532 whole entry): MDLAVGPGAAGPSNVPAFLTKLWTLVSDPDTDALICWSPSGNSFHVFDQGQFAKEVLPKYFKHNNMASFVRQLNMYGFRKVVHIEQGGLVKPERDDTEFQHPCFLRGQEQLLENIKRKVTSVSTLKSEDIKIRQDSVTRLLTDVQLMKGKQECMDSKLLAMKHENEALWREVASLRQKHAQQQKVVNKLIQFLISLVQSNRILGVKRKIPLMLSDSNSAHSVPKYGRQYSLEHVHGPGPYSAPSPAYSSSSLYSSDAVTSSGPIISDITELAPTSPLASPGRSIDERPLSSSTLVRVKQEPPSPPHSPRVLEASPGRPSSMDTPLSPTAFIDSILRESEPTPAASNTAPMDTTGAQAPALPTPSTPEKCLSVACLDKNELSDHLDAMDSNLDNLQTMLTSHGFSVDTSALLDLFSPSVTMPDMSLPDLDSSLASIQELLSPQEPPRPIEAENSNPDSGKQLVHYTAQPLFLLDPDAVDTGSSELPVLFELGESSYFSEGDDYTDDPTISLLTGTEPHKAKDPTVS

[27] = Luminescence-based dose response cell-based high throughput screening assay for cytotoxic compounds using the IEC-6 intestinal epithelial cell line. [Related pubchem assays: 1858 (Summary AID.), 1825 (Counterscreen.), 1907 (Confirmation screen.)]; type: functional
[28] = system: Streptococcus; assay: GAS UMAA2166 growth inhibition – luminescence, BacTiterGlo, counter-screen for streptokinase expression inhibitor project, dose response (AID 1915); type: functional, organism-based;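 further: potency for reduction of bacterial viability or growth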
[29] = loss of viability in HepG2 cells – cell-based, CellTiter-Glo, cherry-picked, cytotoxicity control for Shn3 inhibitor project, dose response (AID 624134); type: functional
[30] = biological target: Multidrug resistance protein CDR1 (Candida albicans, UniProt P43071); assay: inhibition of Nile Red efflux via Candida CDR1 – S. cerevisiae AD1-8u, singleplex, Cherry Pick1 hits, dose response (AID 588606); type: functional
[31] = biological target: Dual specificity protein kinase CLK4 (Homo sapiens, UniProt Q9HAZ1); type: functional
[32] = biological target: Cyclin-dependent kinase 5 (Homo sapiens, UniProt Q00535); type: functional;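 further: CDK5 measured as one member of a kinase profiling panel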
[33] = biological target: Cyclin-dependent kinase 8 (Homo sapiens, UniProt P49336); assay: Navigating the Kinome. Panel member name: CDK8; type: functional
Sequence of Cyclin-dependent kinase 8 (P49336 whole entry): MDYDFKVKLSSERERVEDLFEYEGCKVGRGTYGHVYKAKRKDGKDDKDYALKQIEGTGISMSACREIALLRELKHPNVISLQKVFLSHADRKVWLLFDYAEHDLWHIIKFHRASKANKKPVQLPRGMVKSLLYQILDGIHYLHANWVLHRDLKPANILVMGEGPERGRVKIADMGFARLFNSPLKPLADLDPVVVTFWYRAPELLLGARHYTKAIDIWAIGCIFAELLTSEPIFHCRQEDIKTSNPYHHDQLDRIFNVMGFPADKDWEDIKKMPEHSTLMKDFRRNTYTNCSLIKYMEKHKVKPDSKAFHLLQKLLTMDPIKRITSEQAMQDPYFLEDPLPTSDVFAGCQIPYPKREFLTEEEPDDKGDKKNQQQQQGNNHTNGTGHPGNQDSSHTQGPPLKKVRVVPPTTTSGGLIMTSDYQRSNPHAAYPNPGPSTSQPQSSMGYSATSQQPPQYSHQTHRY

T2 sequence (O43614 whole entry): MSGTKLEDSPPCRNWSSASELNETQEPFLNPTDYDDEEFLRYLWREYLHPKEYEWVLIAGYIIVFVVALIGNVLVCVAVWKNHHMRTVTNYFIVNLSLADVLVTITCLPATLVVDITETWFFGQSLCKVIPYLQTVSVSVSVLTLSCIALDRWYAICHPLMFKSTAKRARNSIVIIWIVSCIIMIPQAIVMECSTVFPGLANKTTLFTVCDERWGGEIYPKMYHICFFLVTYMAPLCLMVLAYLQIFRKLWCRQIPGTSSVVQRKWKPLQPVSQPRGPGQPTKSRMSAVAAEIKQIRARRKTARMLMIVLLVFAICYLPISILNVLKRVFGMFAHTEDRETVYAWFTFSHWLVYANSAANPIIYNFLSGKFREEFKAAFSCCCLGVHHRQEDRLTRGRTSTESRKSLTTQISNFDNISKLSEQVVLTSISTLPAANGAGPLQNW
Sequence of Cyclin-dependent kinase 5 (Q00535 whole entry): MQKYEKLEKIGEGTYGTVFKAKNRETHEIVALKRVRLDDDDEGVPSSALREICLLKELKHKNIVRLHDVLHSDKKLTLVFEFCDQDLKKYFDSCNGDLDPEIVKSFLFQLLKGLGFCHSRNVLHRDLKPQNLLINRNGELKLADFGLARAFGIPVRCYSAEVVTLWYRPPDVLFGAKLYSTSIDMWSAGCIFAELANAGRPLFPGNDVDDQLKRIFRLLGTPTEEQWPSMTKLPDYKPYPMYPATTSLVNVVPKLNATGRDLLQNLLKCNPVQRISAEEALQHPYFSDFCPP
Sequence of Beta-galactosidase (Q8VNN2 whole entry): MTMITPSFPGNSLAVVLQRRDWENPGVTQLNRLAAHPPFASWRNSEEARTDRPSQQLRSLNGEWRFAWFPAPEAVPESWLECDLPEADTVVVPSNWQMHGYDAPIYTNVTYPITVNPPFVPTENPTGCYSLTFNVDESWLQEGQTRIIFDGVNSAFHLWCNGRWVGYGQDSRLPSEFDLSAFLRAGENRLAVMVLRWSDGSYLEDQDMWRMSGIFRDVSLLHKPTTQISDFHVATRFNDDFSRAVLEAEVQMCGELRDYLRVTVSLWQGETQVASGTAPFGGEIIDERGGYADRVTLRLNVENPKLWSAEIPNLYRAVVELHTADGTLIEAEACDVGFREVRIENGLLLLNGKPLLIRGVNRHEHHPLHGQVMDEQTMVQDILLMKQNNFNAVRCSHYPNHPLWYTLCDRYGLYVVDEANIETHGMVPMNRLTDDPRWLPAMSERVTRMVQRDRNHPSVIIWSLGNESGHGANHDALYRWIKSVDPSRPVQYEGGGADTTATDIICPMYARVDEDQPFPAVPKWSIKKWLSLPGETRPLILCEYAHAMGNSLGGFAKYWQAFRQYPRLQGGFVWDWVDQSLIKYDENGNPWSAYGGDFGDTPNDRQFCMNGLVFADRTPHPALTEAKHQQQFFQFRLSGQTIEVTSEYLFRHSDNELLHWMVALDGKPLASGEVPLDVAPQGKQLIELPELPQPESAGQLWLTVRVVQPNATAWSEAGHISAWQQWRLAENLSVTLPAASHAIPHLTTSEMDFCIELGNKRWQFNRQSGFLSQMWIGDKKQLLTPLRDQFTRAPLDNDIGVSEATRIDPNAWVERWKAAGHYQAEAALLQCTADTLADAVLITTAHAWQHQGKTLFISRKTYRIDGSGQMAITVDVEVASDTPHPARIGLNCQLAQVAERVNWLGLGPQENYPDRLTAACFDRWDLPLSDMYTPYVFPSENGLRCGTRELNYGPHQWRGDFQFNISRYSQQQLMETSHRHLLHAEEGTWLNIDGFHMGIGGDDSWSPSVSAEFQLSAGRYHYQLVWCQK
Sequence of Dual specificity protein kinase CLK4 (Q9HAZ1 whole entry): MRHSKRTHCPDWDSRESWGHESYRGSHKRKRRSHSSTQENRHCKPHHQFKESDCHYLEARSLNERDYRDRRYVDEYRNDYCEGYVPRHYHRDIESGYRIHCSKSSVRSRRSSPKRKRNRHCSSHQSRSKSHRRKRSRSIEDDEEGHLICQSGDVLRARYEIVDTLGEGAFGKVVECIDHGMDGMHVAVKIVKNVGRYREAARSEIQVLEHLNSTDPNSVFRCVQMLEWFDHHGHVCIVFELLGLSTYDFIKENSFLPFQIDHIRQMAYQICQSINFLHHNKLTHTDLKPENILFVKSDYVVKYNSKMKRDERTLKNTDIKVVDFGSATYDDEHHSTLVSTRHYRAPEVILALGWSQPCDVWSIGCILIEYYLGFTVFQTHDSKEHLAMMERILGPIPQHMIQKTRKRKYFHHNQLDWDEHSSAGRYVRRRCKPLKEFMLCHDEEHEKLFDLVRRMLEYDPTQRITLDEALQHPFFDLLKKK
Sequence of Multidrug resistance protein CDR1 (P43071 whole entry, looked up): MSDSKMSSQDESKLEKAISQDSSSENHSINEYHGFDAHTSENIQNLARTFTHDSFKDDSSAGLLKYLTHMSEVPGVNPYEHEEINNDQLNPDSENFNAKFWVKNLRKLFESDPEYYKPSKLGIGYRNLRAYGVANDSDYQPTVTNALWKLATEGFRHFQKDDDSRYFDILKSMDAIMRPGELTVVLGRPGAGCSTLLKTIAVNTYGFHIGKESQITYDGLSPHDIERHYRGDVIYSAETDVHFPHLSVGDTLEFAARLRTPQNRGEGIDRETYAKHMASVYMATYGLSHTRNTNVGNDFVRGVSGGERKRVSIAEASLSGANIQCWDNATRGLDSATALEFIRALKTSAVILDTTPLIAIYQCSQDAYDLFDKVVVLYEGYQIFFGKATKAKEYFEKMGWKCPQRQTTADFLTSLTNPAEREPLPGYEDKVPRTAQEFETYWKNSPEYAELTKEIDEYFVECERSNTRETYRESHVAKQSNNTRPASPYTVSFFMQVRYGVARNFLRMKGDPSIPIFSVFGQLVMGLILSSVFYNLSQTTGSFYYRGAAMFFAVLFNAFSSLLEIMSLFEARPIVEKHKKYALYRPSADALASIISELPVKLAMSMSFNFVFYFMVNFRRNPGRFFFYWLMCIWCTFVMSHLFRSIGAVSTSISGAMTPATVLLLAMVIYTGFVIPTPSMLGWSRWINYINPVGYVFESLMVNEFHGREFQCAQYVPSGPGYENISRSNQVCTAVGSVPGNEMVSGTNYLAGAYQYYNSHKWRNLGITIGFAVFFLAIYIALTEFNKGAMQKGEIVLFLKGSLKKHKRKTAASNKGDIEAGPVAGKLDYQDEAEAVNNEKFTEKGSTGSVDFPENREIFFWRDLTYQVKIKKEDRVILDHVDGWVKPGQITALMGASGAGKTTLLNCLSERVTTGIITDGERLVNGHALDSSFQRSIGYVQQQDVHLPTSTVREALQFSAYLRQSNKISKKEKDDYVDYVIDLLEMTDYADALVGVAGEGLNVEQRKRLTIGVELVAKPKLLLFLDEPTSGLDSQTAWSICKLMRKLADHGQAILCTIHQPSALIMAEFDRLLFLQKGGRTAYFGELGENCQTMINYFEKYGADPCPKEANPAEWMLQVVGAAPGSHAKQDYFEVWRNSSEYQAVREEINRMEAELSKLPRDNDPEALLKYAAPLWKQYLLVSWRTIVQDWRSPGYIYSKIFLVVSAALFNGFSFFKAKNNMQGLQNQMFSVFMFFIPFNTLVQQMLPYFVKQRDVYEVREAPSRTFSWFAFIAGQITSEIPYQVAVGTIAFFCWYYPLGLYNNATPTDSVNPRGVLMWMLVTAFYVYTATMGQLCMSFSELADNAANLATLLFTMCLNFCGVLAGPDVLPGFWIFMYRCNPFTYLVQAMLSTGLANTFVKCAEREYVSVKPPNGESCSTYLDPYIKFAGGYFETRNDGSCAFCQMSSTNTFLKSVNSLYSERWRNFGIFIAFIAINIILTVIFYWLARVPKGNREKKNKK
Sequence of Paired box protein Pax-8 (Q06710 whole entry): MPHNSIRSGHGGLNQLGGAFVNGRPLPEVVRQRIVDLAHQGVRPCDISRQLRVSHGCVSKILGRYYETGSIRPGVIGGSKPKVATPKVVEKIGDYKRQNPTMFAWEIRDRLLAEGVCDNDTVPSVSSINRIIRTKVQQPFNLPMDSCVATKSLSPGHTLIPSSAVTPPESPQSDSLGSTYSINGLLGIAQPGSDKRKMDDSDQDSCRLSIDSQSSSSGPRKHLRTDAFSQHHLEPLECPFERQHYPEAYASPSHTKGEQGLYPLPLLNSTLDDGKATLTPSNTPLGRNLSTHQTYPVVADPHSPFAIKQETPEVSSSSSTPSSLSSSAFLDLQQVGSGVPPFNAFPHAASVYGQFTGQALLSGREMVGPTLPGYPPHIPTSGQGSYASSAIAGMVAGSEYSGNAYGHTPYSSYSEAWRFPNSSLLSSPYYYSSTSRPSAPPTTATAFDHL

CCn1c2ccccc2c2cc(NC(=O)c3cc(OC)cc(OC)c3)ccc21
active: IC50 [1] 0.554 µM | EC50 [2] 0.431 µM | IC50 [3] 1.38 µM | AC50 [4] 4.74 µM | EC50 [9] 0.545 µM | AC50 [10] < 0.16 µM | EC50 [13] 22.8 µM
inactive: IC50 [6] > 50 µM | IC50 [7] 21.7 µM | IC50 [8] > 66.2 µM | IC50 [11] > 49.8 µM | IC50 [12] > 80 µM
inconclusive: EC50 [5] 0.365 µM

COc1cc(NS(=O)(=O)c2ccc(C)cc2)c2ncccc2c1
> 150 µM (not active): EC50 [23]
inactive: IC50 [17] > 79 µM | IC50 [12] > 80 µM | EC50 [21] > 40 µM | IC50 [25] > 80 µM
active: AC50 [14] 3.35 µM | EC50 [15] 0.524 µM | EC50 [16] 2.6 µM | IC50 [18] 1.52 µM | AC50 [19] 13.8 µM | IC50 [20] 5.53 µM | EC50 [22] 1.45 µM | IC50 [24] 3.88 µM | EC50 [26] 24.3 µM | IC50 [27] 1.58 µM | EC50 [28] 21.7 µM | AC50 [29] 9.77 µM

COc1cc2c(cc1NC(=O)CSc1nnc(Cc3cccs3)n1Cc1ccco1)oc1ccccc12
active: EC50 [30] 0.011 µM

CC(C)(O)c1c(-c2ccccc2)n[nH]c(=O)c1N
active: Ki [31] 31.6 µM | Ki [32] 50.1 µM | Ki [33] 50.1 µM
